Results published in patent US10294237B2, “Bicyclic heterocyclic amide derivative” (Sumitomo Dainippon Pharma Co., Ltd., priority 2015, dated 2019).

Tests used:
HCT-116 cells [1] = experiment: Anti-tumor effect to HCT-116 tumor-bearing mouse; assay type: in vivo; conditions: oral, administration period 17 days, nude mouse
Description: The present compound can be used to evaluate the anti-tumor effect thereof. A 4 to 7-week-old nude mouse (BALB/cAnNCrj-nu/nu, female, CHARLES RIVER LABORATORIES JAPAN, INC.) received intradermal transplantation of HCT-116 cells (ATCC) in an amount of 3×10^6 cells/mouse around the ventral portion. The engraftment of HCT-116 cells was observed 5 to 14 days after the transplantation, and then each compound suspended in a solvent such as 0.5% methylcellulose solution was orally administrated to the mouse in a dose of 1 to 100 mg/kg one to twice daily. The tumor volume was measured over time after the administration to evaluate the effect for reducing the tumor volume by the administration of each compound. The tumor volume can be calculated from the minor axis and the major axis of the tumor measured with a digital caliper (Mitutoyo) according to the following formula: Tumor volume [mm^3]=0.5×minor axis [mm]×(major axis [mm])^2
The tumor volume in control administration group treated with only a solvent such as 0.5% methylcellulose solution was compared with that of the present compound administration group, and T/C value was calculated according the following formula to evaluate the anti-tumor effect of the present compound. T/C(%)=(the tumor volume at the end of administration in the present compound administration group−the tumor volume at the start of administration in the present compound administration group)/(the tumor volume at the end of administration in the control administration group−the tumor volume at the start of administration in the control administration group)×100
The T/C values (%) of the present compound on each dosage and administration period in the HCT-116 tumor-bearing mouse are shown below.

HCT-116 cells [2] = experiment: Test for inhibiting sphere-forming ability of cancer cells; assay type: cell-based; conditions: HCT-116 spheres, non-adherent, serum-free, 4 days, CellTiter-Glo, read-out: IC50 (Sphere IC50 value; concentration for 50% inhibition of cell proliferation)
Method: (§1) The reliable methods established for measuring the self-renewal ability of cells which is one of the CSC's properties include a method for measuring the sphere-forming ability of cancer cells in non-adherent condition in the absence of serum (Cancer Res 65, 5506-5511 (2005)). HCT-116 cells were available from the American Type Culture Collection (ATCC). HCT-116 cells were cultured at 37° C. and 5% CO2 using the McCoy's 5a medium containing 10% fetal bovine serum (FBS) and 1% penicillin/streptomycin. HCT-116 cells were seeded in a 384 Well Black Clear Bottom Ultra-Low Attachment Microplate (Corning Cat. No. 3827) in an amount of 350-800 cells/well using the DMEM/F12 medium containing 2% B27 supplement (GIBCO), 20 ng/mL epidermal growth factor (EGF) (peprotech), 10 ng/mL basic fibroblast growth factor (bFGF) (peprotech), 5 μg/mL insulin (Sigma), and 1% penicillin/streptomycin. The test compounds were added into each well to adjust the final concentration of DMSO to 0.1%, and the cells were cultured for 4 days. The number of viable cells in each well was then measured with CellTiter-Glo® Luminescent Cell Viability Assay (Promega) to calculate the concentration of each test compound for 50% inhibition of cell proliferation (Sphere IC50 value; μmol/L).
The experiment of Test Example 1 was performed for the compounds of each Example. The concentrations of each test compound for 50% inhibition of cell profeliration (Sphere IC50 value; μmol/L) are shown in the following Table.

HCT-116 cells [3] = experiment: Test for inhibiting sphere-forming ability of cancer cells (in the presence of BSA); assay type: cell-based; conditions: HCT-116 spheres, non-adherent, 5% BSA, 4 days, CellTiter-Glo, read-out: IC50 (Sphere IC50 value; concentration for 50% inhibition of cell proliferation)
Method: as §1, with “HCT-116” for “The reliable methods established for measuring the self-renewal ability of cells which is one of the CSC's properties include a method for measuring the sphere-forming ability of cancer cells in non-adherent condition in the absence of serum (Cancer Res 65, 5506-5511 (2005)). HCT-116”, “(Sigma), 5% bovine serum albumin (BSA),” for “(Sigma),”
The experiment of Test Example 2 was performed for the compounds of each Example. The concentrations of each test compound for 50% inhibition of cell profeliration (Sphere IC50 value; μmol/L) are shown in the following Table.

Row | IC50 (HCT-116 cells [2]; Homo sapiens, 96 h) | IC50 (HCT-116 cells [3]; Homo sapiens, HCT-116, 96 h) | IC50 (HCT-116 cells [2]) | IC50 (HCT-116 cells [3]) | SMILES | T/C (HCT-116 cells [1]; dosage 10 mg/kg) | T/C (HCT-116 cells [1]; dosage 30 mg/kg) | T/C (HCT-116 cells [1]; dosage 100 mg/kg)
1 | 60 nM | 30 nM | – | – | O=C(Nc1cc2c(cn1)CNCC2)c1cn(Cc2cc(F)c(F)c(F)c2)cn1 [Example 3, N-(5,6,7,8-tetrahydro-2,7-naphthyridin-3-yl)-1-(3,4,5-trifluorobenzyl)-1H-imidazole-4-carboxamide] | 90% | 79% | –
2 | – | – | 60 nM | 50 nM | O=C(Nc1cn(Cc2cc(F)c(F)c(F)c2)cn1)c1ccc2c(c1)CCNC2 [Example 6, N-[1-(3,4,5-trifluorobenzyl)-1H-imidazol-4-yl]-1,2,3,4-tetrahydroisoquinoline-6-carboxamide] | – | 73% | –
3 | 50 nM | 50 nM | – | – | O=C(Nc1cn(Cc2cc(F)c(F)c(F)c2)cn1)c1ccc2c(n1)CCNC2 [Example 11, N-[1-(3,4,5-trifluorobenzyl)-1H-imidazol-4-yl]-5,6,7,8-tetrahydro-1,6-naphthyridine-2-carboxamide] | – | 62% | 46%
4 | 70 nM | 60 nM | – | – | O=C(Nc1cn(Cc2cc(F)c(F)c(F)c2)cn1)c1cnc2c(c1)CCNC2 [Example 12, N-[1-(3,4,5-trifluorobenzyl)-1H-imidazol-4-yl]-5,6,7,8-tetrahydro-1,7-naphthyridine-3-carboxamide] | – | 79% | 73%
5 | 40 nM | 50 nM | – | – | O=C(Nc1cn(Cc2cccc(C(F)(F)F)c2)cn1)c1ccc2c(n1)CCNC2 [Example 10, N-{1-[3-(trifluoromethyl)benzyl]-1H-imidazol-4-yl}-5,6,7,8-tetrahydro-1,6-naphthyridine-2-carboxamide] | – | 55% | 49%
6 | 30 nM | 60 nM | – | – | O=C(Nc1cn(Cc2cccc(C(F)(F)F)c2)cn1)c1cnc2c(c1)CCNC2 [Example 13, N-{1-[3-(trifluoromethyl)benzyl]-1H-imidazol-4-yl}-5,6,7,8-tetrahydro-1,7-naphthyridine-3-carboxamide] | – | 62% | 59%
7 | 820 nM | 660 nM | – | – | O=C(Nc1cn(Cc2cccc(Cl)c2)cn1)c1ccc2c(c1)CCNC2 [Example 45] | – | – | –
8 | 60 nM | 50 nM | – | – | O=C(Nc1cn(Cc2ccc(Cl)c(F)c2)cn1)c1cnc2c(c1)CCNC2 [Example 51, N-[1-(4-chloro-3-fluorobenzyl)-1H-imidazol-4-yl]-5,6,7,8-tetrahydro-1,7-naphthyridine-3-carboxamide] | – | – | –
9 | – | – | 80 nM | 70 nM | Cc1cccc(Cn2cnc(NC(=O)c3cnc4c(c3)CCNC4)c2)c1 [Example 121] | – | – | –
10 | 90 nM | 440 nM | – | – | O=C(Nc1cn(Cc2cc(F)c(F)c(F)c2)cn1)c1cc2c(cn1)CNCC2 [Example 8, N-[1-(3,4,5-trifluorobenzyl)-1H-imidazol-4-yl]-5,6,7,8-tetrahydro-2,7-naphthyridine-3-carboxamide] | – | – | –
11 | 70 nM | 640 nM | – | – | O=C(Nc1cn(Cc2cccc(Oc3ccccc3)c2)cn1)c1ccc2c(c1)CCNC2 [Example 89, N-[1-(3-phenoxybenzyl)-1H-imidazol-4-yl]-1,2,3,4-tetrahydroisoquinoline-6-carboxamide] | – | – | –
12 | – | – | 920 nM | 770 nM | O=C(Nc1cn(Cc2ccccc2)cn1)c1ccc2c(c1)CCNC2 [Example 71] | – | – | –
13 | – | – | 3790 nM | 4900 nM | O=C(Nc1cn(Cc2ccccc2C(F)(F)F)cn1)c1ccc2c(c1)CCNC2 [Example 82] | – | – | –
14 | – | – | 550 nM | 490 nM | O=C(Nc1cn(Cc2ccc(F)cc2)cn1)c1ccc2c(c1)CCNC2 [Example 79] | – | – | –
15 | – | – | 620 nM | 600 nM | O=C(Nc1cn(Cc2cccc(F)c2)cn1)c1ccc2c(c1)CCNC2 [Example 77] | – | – | –
16 | 70 nM | 60 nM | – | – | O=C(Nc1cn(Cc2cc(F)c(F)c(F)c2)cn1)c1cc(F)c2c(c1)CCNC2 [Example 5, 8-fluoro-N-[1-(3,4,5-trifluorobenzyl)-1H-imidazol-4-yl]-1,2,3,4-tetrahydroisoquinoline-6-carboxamide] | – | 71% | 42%
17 | 6200 nM | 6190 nM | – | – | Cc1c(NC(=O)c2ccc3c(c2)CCNC3)ncn1Cc1cccc(C(F)(F)F)c1 [Example 21] | – | – | –
18 | 5850 nM | 6000 nM | – | – | O=C(Nc1cn(Cc2cccc(C(F)(F)F)c2)cn1)c1cc2c(s1)CCNC2 [Example 16] | – | – | –
19 | – | – | 3590 nM | 710 nM | N#Cc1cccc(Cn2cnc(NC(=O)c3cnc4c(c3)CCNC4)c2)c1 [Example 63] | – | – | –
20 | 6990 nM | 6110 nM | – | – | COc1cc(Cn2cnc(NC(=O)c3ccc4c(c3)CCNC4)c2)cc(OC)c1 [Example 94] | – | – | –
21 | 60 nM | 60 nM | – | – | O=C(Nc1cn(Cc2ccc(F)c(C(F)(F)F)c2)cn1)c1cnc2c(c1)CCNC2 [Example 53, N-{1-[4-fluoro-3-(trifluoromethyl)benzyl]-1H-imidazol-4-yl}-5,6,7,8-tetrahydro-1,7-naphthyridine-3-carboxamide] | – | – | –
22 | 660 nM | 560 nM | – | – | O=C(Nc1ccc2c(c1)CCNC2)c1cn(Cc2cc(F)c(F)c(F)c2)cn1 [Example 4, N-(1,2,3,4-tetrahydroisoquinolin-6-yl)-1-(3,4,5-trifluorobenzyl)-1H-imidazole-4-carboxamide] | – | – | –
23 | 80 nM | 90 nM | – | – | O=C(Nc1cn(Cc2ccc(F)c(Cl)c2)cn1)c1ccc2c(c1)CCNC2 [Example 95, N-[1-(3-chloro-4-fluorobenzyl)-1H-imidazol-4-yl]-1,2,3,4-tetrahydroisoquinoline-6-carboxamide] | – | – | –
24 | 70 nM | 500 nM | – | – | O=C(Nc1cn(Cc2cccc(C(F)(F)F)c2)cn1)c1cc2c(cn1)CNCC2 [Example 9, N-{1-[3-(trifluoromethyl)benzyl]-1H-imidazol-4-yl}-5,6,7,8-tetrahydro-2,7-naphthyridine-3-carboxamide] | – | – | –
